{
  "source": "patent US20100316580A1",
  "about": "“ORAL CARE PRODUCT AND METHODS OF USE THEREOF” (Colgate-Palmolive Company, priority 2008, published 2010)",
  "origin": "cited, not measured here",
  "data": [
    {"smiles": "Oc1cc(Cl)ccc1Oc1ccc(Cl)cc1Cl", "note": "[triclosan, 5-chloro-2-(2,4-dichlorophenoxyphenol]", "values": [
      {"measurement": "solubility in water", "value": "only slightly soluble"}
    ]}
  ]
}
